This is an account of results in patent publication US9796711B2, “Substituted pyrazolo[3,4-b]pyridin-6-carboxylic acids and method of use” (AbbVie S.àr.l., priority 2015, dated 2017).

Experiment [1] concerns the target T1, ΔF508-CFTR (Homo sapiens, UniProt P13569, DEL508-508).
T1 construct: host or cells: CFBE41o-, doxycycline-inducible
Put plainly: CFTR cell surface levels using HRP-tagged ΔF508-CFTR expressing CFBE cells, in the presence of a co-corrector. Format: cell-based. An outline of the steps: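 Cells were seeded with 0.5 μg/mL doxycycline and held 68 h at 37 °C. Test compounds plus 3 μM co-corrector (final 0.1% DMSO) were then added for 20 h at 33 °C. Washed cells received HRP substrate, and luminescence was normalized between DMSO and 3 μM co-corrector controls.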

The target in experiment [2] is T1, ΔF508-CFTR. Description: CFTR cell surface levels using HRP-tagged ΔF508-CFTR expressing CFBE cells, intrinsic corrector capacity. In kind it is cell-based. An outline of the steps:
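Here the cells express ΔF508-CFTR with horseradish peroxidase inserted in extracellular loop 4, so only rescued channel at the surface gives luminescent signal. Compounds act on their own, 20 h at the reduced temperature of 33 °C; values are percent activity relative to DMSO and a 3 μM corrector.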

[3] abbreviates: HRP-tagged ΔF508-CFTR expressing CFBE cells, in the presence of 3 μM co-corrector.
Setting [4] is: HRP-tagged ΔF508-CFTR expressing CFBE cells, in the presence of 3 μM co-corrector, read-out: EC50.
[5] abbreviates: HRP-tagged ΔF508-CFTR CFBE41o- cells, compounds alone (intrinsic corrector capacity), 20 hours at 33° C., positive control 3 μM corrector.
The mark [6] stands for this setting: HRP-tagged ΔF508-CFTR CFBE41o- cells, compounds alone (intrinsic corrector capacity), 20 hours at 33° C., read-out: EC50.
The mark [7] stands for this setting: HRP-tagged ΔF508-CFTR expressing CFBE cells, intrinsic corrector capacity (no co-corrector), 33° C., 20 hours.
Setting [8] is: HRP-tagged ΔF508-CFTR expressing CFBE cells, intrinsic corrector capacity (no co-corrector), 33° C., 20 hours, read-out: EC50.

T1 sequence (P13569 with tags, fused parts or gaps DEL508-508): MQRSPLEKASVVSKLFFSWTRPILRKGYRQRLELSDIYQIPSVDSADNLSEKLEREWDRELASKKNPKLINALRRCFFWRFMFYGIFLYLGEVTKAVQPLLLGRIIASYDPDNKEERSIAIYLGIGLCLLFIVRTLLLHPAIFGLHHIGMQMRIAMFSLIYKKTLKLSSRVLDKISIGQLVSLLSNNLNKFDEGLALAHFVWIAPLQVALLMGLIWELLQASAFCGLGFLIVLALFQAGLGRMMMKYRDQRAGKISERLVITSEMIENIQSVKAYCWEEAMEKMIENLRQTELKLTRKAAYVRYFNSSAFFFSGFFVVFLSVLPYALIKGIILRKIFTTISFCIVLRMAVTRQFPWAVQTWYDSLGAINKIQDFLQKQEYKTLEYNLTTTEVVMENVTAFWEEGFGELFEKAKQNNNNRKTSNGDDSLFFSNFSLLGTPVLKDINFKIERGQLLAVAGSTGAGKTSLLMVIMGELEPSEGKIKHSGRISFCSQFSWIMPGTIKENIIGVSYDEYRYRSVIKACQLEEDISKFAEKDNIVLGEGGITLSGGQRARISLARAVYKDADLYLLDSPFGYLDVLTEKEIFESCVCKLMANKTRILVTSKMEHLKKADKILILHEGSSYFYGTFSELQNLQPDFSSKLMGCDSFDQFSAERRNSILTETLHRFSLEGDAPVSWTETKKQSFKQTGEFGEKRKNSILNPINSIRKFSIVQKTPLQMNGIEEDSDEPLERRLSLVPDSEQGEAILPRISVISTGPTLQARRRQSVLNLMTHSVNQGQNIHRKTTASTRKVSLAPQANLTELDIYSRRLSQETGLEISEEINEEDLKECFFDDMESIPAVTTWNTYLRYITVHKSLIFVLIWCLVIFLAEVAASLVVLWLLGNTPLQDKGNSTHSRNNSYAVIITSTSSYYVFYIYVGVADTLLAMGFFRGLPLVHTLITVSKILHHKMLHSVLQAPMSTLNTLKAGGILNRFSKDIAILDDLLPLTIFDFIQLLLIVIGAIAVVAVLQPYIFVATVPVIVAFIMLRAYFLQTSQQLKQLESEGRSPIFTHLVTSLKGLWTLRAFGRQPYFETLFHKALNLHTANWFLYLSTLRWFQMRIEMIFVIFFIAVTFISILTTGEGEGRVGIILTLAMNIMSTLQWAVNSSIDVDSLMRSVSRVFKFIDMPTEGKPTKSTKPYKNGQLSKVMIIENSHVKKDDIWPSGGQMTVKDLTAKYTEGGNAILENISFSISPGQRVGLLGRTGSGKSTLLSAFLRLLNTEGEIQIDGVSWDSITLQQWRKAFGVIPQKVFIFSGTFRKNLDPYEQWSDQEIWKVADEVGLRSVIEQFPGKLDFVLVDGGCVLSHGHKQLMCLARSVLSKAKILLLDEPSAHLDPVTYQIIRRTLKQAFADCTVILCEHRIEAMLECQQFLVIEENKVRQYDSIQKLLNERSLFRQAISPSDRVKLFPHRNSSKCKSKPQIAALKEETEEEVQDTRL

In the case of `CC(C)c1nn(C2CCCCC2)c2nc(C(=O)O)cc(N3CCC(CO)CC3)c12` [compound 266, 1-cyclohexyl-4-[4-(hydroxymethyl)piperidin-1-yl]-3-(propan-2-yl)-1H-pyrazolo[3,4-b]pyridine-6-carboxylic acid], the figures for the “% Activation” value on ΔF508-CFTR [1] (setting [3]) and at ΔF508-CFTR [2] (setting [5]) were 405.3% and 197.55%, respectively. Further, the results for the EC50 on ΔF508-CFTR [1] (setting [4]) and at ΔF508-CFTR [2] (setting [6]) were 1050 nM and 1250 nM, respectively.
As to `O=C(O)c1cc(CN2CCC(N3CCOCC3)CC2)c2c(C3CCC3)nn(-c3ccc(F)cc3)c2n1` [compound 893, 3-Cyclobutyl-1-(4-fluoro-phenyl)-4-(4-morpholin-4-yl-piperidin-1-ylmethyl)-1H-pyrazolo[3,4-b]pyridine-6-carboxylic acid], the “% Activation” value was 236.6% at ΔF508-CFTR [1] (setting [3]) and 55.75% on ΔF508-CFTR [2] (setting [7]). For the same molecule, the EC50 at ΔF508-CFTR [1] (setting [4]) was 3330 nM; at ΔF508-CFTR [2] (setting [8]), 3140 nM.
For the molecule `Cc1nn(-c2ccccc2)c2nc(C(=O)O)cc(-c3ccc(N4CC(F)(F)C4)cc3)c12` [compound 97, 4-[4-(3,3-difluoroazetidin-1-yl)phenyl]-3-methyl-1-phenyl-1H-pyrazolo[3,4-b]pyridine-6-carboxylic acid], the “% Activation” value is on record as 268% on ΔF508-CFTR [1] (setting [3]) and 96.51% at ΔF508-CFTR [2] (setting [5]). Further, the figures for the EC50 on ΔF508-CFTR [1] (setting [4]) and at ΔF508-CFTR [2] (setting [6]) were 1160 nM and 1530 nM, respectively.
As to `O=C(O)c1cc(N2CCC3(CCNC3=O)C2)c2c(C3CCC3)nn(-c3ccccc3)c2n1` (stereo not drawn) [compound 537, 3-cyclobutyl-4-(6-oxo-2,7-diazaspiro[4.4]nonan-2-yl)-1-phenyl-1H-pyrazolo[3,4-b]pyridine-6-carboxylic acid], the “% Activation” value at ΔF508-CFTR [1] (setting [3]) came out at 191.2%; at ΔF508-CFTR [2] (setting [7]), 45.36%. For the same molecule, the half-maximal effective concentration (EC50) at ΔF508-CFTR [1] (setting [4]) and at ΔF508-CFTR [2] (setting [8]) was 3330 nM throughout.
Consider `O=C(O)c1cc(N2CCC[C@@H](CO)C2)c2c(C3CCC3)nn(-c3ccccc3)c2n1` [compound 544, 3-cyclobutyl-4-[(3R)-3-(hydroxymethyl)piperidin-1-yl]-1-phenyl-1H-pyrazolo[3,4-b]pyridine-6-carboxylic acid], for which the values for the EC50 at ΔF508-CFTR [1] and at ΔF508-CFTR [2] were 457 nM and 803 nM, respectively. Further, the “% Activation” value at ΔF508-CFTR [1] (setting [3]) amounted to 273%; on ΔF508-CFTR [2] (setting [7]), 129.55%.
Take `O=C(O)c1cc(OC2CCC(F)(F)CC2)c2c(C3CCC3)nn(-c3ccccc3)c2n1` [compound 578, 3-cyclobutyl-4-[(4,4-difluorocyclohexyl)oxy]-1-phenyl-1H-pyrazolo[3,4-b]pyridine-6-carboxylic acid]: the figures for the “% Activation” value at ΔF508-CFTR [1] (setting [3]) and on ΔF508-CFTR [2] (setting [7]) were 301.55% and 118.2%, respectively. In addition, the EC50 at ΔF508-CFTR [1] (setting [4]) amounted to 224 nM; at ΔF508-CFTR [2] (setting [8]) it was 334 nM.
For `COC1CN(c2cc(C(=O)O)nc3c2c(C(C)C)nn3-c2cccc(C)c2)C1` [compound 212, 4-(3-methoxyazetidin-1-yl)-1-(3-methylphenyl)-3-(propan-2-yl)-1H-pyrazolo[3,4-b]pyridine-6-carboxylic acid], the “% Activation” value is 386.9% at ΔF508-CFTR [1] (setting [3]) and 139.7% on ΔF508-CFTR [2] (setting [5]). The EC50 at ΔF508-CFTR [1] (setting [4]) was determined as 1490 nM; at ΔF508-CFTR [2] (setting [6]) it was 2640 nM.
On to `CC(C)(COc1cc(C(=O)O)nc2c1c(C1CCC1)nn2-c1ccccc1)S(C)(=O)=O` [compound 629, 3-cyclobutyl-4-[2-(methanesulfonyl)-2-methylpropoxy]-1-phenyl-1H-pyrazolo[3,4-b]pyridine-6-carboxylic acid], for which the “% Activation” value on ΔF508-CFTR [1] (setting [3]) came out at 252.2%; at ΔF508-CFTR [2] (setting [7]), 94.42%. In addition, the EC50 turned out to be 2160 nM on ΔF508-CFTR [1] (setting [4]) and 3330 nM on ΔF508-CFTR [2] (setting [8]).
On to `CC(C)c1nn(-c2cccc(F)c2)c2nc(C(=O)O)cc(-c3ccc(N4CCOCC4)cc3)c12` [compound 242, 1-(3-fluorophenyl)-4-[4-(morpholin-4-yl)phenyl]-3-(propan-2-yl)-1H-pyrazolo[3,4-b]pyridine-6-carboxylic acid], for which the “% Activation” value at ΔF508-CFTR [1] (setting [3]) is given as 394.12%; at ΔF508-CFTR [2] (setting [5]) it was 206.5%. Further, the EC50 turned out to be 338 nM on ΔF508-CFTR [1] (setting [4]) and 603 nM at ΔF508-CFTR [2] (setting [6]).

Usually EC50 stands for the concentration that produces a half-maximal response.
